Literature values, collected in Sander's compilation of Henry's law constants (doi:10.1021/es00169a013).

assay: Henry solubility constant Hcp at 298.15 K (mol/(m3 Pa)); details: reference: Dunnivant et al. (1988); cited value

SMILES | Henry solubility constant Hcp
Clc1ccc(-c2ccc(Cl)cc2)cc1 [4,4'-dichlorobiphenyl] | 0.068
Clc1cc(Cl)c(-c2cc(Cl)c(Cl)cc2Cl)cc1Cl [2,2',4,4',5,5'-hexachlorobiphenyl] | 0.08
Clc1cc(Cl)c(-c2c(Cl)cc(Cl)cc2Cl)c(Cl)c1 [2,2',4,4',6,6'-hexachlorobiphenyl] | 0.086
Clc1cccc(Cl)c1-c1c(Cl)cccc1Cl [2,2',6,6'-tetrachlorobiphenyl] | 0.067
